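Five compound concentrations were applied to cells in 96-well plates for 48 hours; endpoints were derived by simple linear interpolation of the resulting dose-response curve. The concentration for 50% growth inhibition is given as GI50. TGI marks complete inhibition of growth.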
Assays:
Assay in all cases: NCI tumour cell line growth inhibition, 48 h
[1] = test system: OVCAR-5 ovarian
[2] = test system: COLO 205 colon
[3] = test system: OVCAR-4 ovarian
[4] = test system: DU-145 prostate
[5] = test system: HT29 colon
[6] = test system: NCI-H460 lung
[7] = test system: M14 melanoma
[8] = test system: SF-539 CNS
[9] = test system: CCRF-CEM leukemia
[10] = test system: U251 CNS

Row | SMILES | TGI [1] [µM] | TGI [2] [µM] | TGI [3] [µM] | TGI [4] [µM] | TGI [5] [µM] | TGI [6] [µM] | TGI [7] [µM] | TGI [8] [µM] | TGI [9] [µM] | TGI [10] [µM] | GI50 [9] [µM] | GI50 [1] [µM] | GI50 [2] [µM] | GI50 [3] [µM] | GI50 [4] [µM] | GI50 [6] [µM] | GI50 [7] [µM] | GI50 [8] [µM] | GI50 [10] [µM] | GI50 [5] [µM]
1 | CCN(CC)CCNc1ccc([N+](=O)[O-])c2nc3ccc(OC)cc3c(N)c12 | 3.15 | 1.65 | 1.91 | 3.07 | 1.42 | 2.67 | 2.97 | 3.27 | 1.31 | 3.06 |  |  |  |  |  |  |  |  |  | 
2 | NC1=C(O)C(=O)C(c2c[nH]c3ccc(OCc4ccccc4)cc23)O1 (stereo not given) | > 100 | > 100 | > 100 | > 100 | > 100 | > 100 | > 100 | > 100 | > 100 | > 100 | > 100 |  |  |  |  |  |  |  |  | 
3 | Cn1cc(-c2csc(-c3cn(C(=O)OC(C)(C)C)c4ccccc34)n2)c2cccnc21 | 29.9 | 14.6 | 47 | 21.6 |  | 17.7 | 22.7 | 17.4 | 67.6 | 16.3 | 3.89 | 14.6 | 2.97 | 6.73 | 5.17 | 3.92 | 7.36 | 3.51 | 4.23 | 
4 | CS(=O)(=O)CCNCc1ccoc1-c1ccc2ncnc(Nc3ccc(OCc4ccccc4)cc3)c2c1 | > 25 | > 25 | > 25 | > 25 | > 25 | > 25 | > 25 | > 25 | > 25 | > 25 | 17.7 | > 25 | 24.8 | > 25 | > 25 | 11.4 | > 25 | > 25 | > 25 | 9.55
5 | CC1=C(SCCC(=O)OC(C[Se]C2=C(C)C(=O)c3ccccc3C2=O)C(=O)NC(C)(C)C)C(=O)c2ccccc2C1=O (stereo not given) | 3.08 | 3.14 | 2.76 | 2.82 | 3.39 | 2.06 | 2.67 | 2.75 | 1.2 | 1.57 | 0.306 | 1.69 | 1.66 | 1.45 | 1.49 | 0.44 | 1.32 | 1.44 | 0.45 | 1.78
6 | COc1ccc2c(c1)[nH]c1c3ccc(OC)cc3oc(=O)c21 | > 100 | > 100 | > 100 | > 100 | > 100 | > 100 | > 100 | > 100 | > 100 | > 100 |  |  |  |  |  |  |  |  |  | 
7 | COc1ccc(C2C3=C(COC3=O)N(CCO)c3cc4c(cc32)CCC4)cc1 (stereo not given) | > 50 | > 50 | > 50 | 20.2 | 24.9 | 26.9 | 21.1 | 28.5 | > 50 | > 50 | 3.98 | > 50 | 6.2 | 5.46 | 5.04 | 2.37 | 2.32 | 5.09 | 3.16 | 1.7
8 | C[C@H]1CC[C@@H]2[C@@H](C)[C@H]3[C@H](C[C@H]4[C@@H]5CC=C6C[C@@H](O)CC[C@]6(C)[C@H]5CC[C@]34C)N2C1 | > 100 | 39.2 | > 100 | > 100 | 43 | > 100 | > 100 | > 100 | > 100 | > 100 |  |  |  |  |  |  |  |  |  | 
9 | CN(C)Cc1cc(C(C)(C)C)cc(CN(C)C)c1O | > 100 | > 100 | > 100 | > 100 | > 100 | > 100 | > 100 | > 100 | > 100 | > 100 |  |  |  |  |  |  |  |  |  | 
10 | O=S(=O)(Nc1ccc(Cl)c(Cl)c1)c1ccc(-c2cnc(C3CC3)o2)cc1 | 17.3 | 3.36 | 20.6 | 13.9 | 16.8 | 11.6 | 13.1 | 3.64 | > 77.5 | 16.3 | 0.439 | 2.32 | 0.501 | 1.16 | 0.736 | 0.368 | 0.418 | 0.399 | 0.607 | 0.403
11 | CCSc1nc(N)c2cnn(CC)c2n1 | > 100 | > 100 | > 100 | 40.3 |  | 78 | 30.5 | 27.3 | 10.8 | 86 | 3.58 | 27.1 | 18.9 | 49 | 5.75 | 23.9 | 15.1 | 6.67 | 4.12 | 
12 | CCCCCCCCc1cc(O)ccc1O | 42.8 | 68.7 | 39.2 | 52.5 | 49.4 | 33.1 |  | 28.8 | 33.3 | 40.6 | 4.09 | 19.9 | 30.1 | 14.8 | 21.9 | 17.3 |  | 15.4 | 18.5 | 16.1

From PubChem BioAssay (NCI)
